Patent US10695334B2, “Heteroaromatic carboxamide derivatives as plasma kallikrein inhibitors” (Boehringer Ingelheim International GmbH, priority 2018, dated 2020)

Assays:
Format in all cases: biochemical
Human PKK [1] = target: T1, Human PKK (Homo sapiens (Human), UniProt P03952); experiment: Inhibition of PKK, endpoint assay (human PKK); details: substrate H-Pro-Phe-Arg-AMC, 1 h room temperature
Protocol: Subsequently, PPACK II (Calbiochem) was added as a stop solution to achieve a final concentration of 1 μM and fluorescence was measured using an Envision Reader (PerkinElmer) with the wavelength excitation setting of 355 nm and the wavelength emission setting of 460 nm.

Human PKK [2] = target: T1, Human PKK; experiment: Inhibition of PKK (Ki), kinetic assay; details: 24° C., IC50 corrected for KM
Protocol: Measurements were performed in a kinetic interval every 2nd minute for 16 min using a Spectramax M5 (Molecular Devices) with the following settings of the wavelength excitation of 350 nm and wavelength emission of 450 nm. The number of the compound corresponds to the number of the Example in the experimental section.
The pIC50 values were then fitted using a four-parametric fitting procedure using GraphPad Prism (version 6; GraphPad Software, Inc.).
(§1) Where the IC50 is in molar and the KM value in mM.

[3] = target: PKK in kaolin activated human platelet poor plasma (Homo sapiens (Human), UniProt P03952); experiment: Inhibition of PKK in kaolin activated human PPP; details: global fit over 25, 75, 250, 750 μg/mL kaolin
Protocol: Platelet poor plasma (PPP) obtained from human wholeblood, anticoagulated with Na-Citrat, was incubated with various concentrations of the test compound together with either 25, 75, 250, or 750 μg/mL kaolin in assay buffer for 20 min at 37° C. such that for each kaolin dose used a concentration response was obtained for the test compound.

human TK1 = human TK1 (Homo sapiens (Human), UniProt P06870); experiment: Inhibition of TK1 (Ki); details: column head prints IC50, text above the table says Ki values
Protocol: The ability of compounds of formula (I) to inhibit plasma kallikrein (PKK), Factor Xlla (FXIIa), Factor Xla (FXIa), Factor Xa (FXa), Factor Ila (alpha-thrombin; FIIa), plasmin, trypsin, tissue kallikrein 1 (TK1), Factor VIIa (FVIIa), or FVIIa complexed with Tissue Factor, phospholipids and CaCl2 (FVIIa/TF/PL/CaCl2) was determined using the following biochemical assays in assay buffer (100 mM Tris, 150 mM NaCL, adjusted to a pH of 7.8 with HCl, and containing 0.1% (w/v) BSA and 0.05% (v/v) Tween20) in the presence of 1% (v/v) DMSO: EVALUATION OF THE INHIBITION OF PKK USING AN ENDPOINT ASSAY Human PKK (0.01 U/mL; Enzyme Research Laboratories) or rat PKK (0.625 nM; produced in-house) was incubated for 1 h at room temperature with 0.10 μM fluorogenic substrate H-Pro-Phe-Arg-AMC (11295 from Bachem) and various concentrations of the test compound in assay buffer. Subsequently, PPACK II (Calbiochem) was added as a stop solution to achieve a final concentration of 1 μM and fluorescence was measured using an Envision Reader (PerkinElmer) with the wavelength excitation setting of 355 nm and the wavelength emission setting of 460 nm.
Prior to the assay, human TK1 (R&D Systems) was activated by incubation with human trypsin (Calbiochem) in a 1:10,000 ratio for 15 min at 37° C. For assaying TK1 inhibitory activity, activated TK1 (31.25 nM or 1 U/mL) was incubated at 24° C. with 0.1 mM fluorogenic substrate H-Pro-Phe-Arg-AMC (11295 from Bachem) and various concentrations of the test compound in assay buffer. Measurements were performed in a kinetic interval every 2nd minute for 16 min using a Spectramax M5 (Molecular Devices) with the following settings of the wavelength excitation of 350 nm and wavelength emission of 450 nm.
The average Vmax values for the time interval from 2 to 12 min after initiation of the assay (expressed as either delta OD/min for assays using a chromogenic substrate or delta RFU/min for assays using a fluorigenic substrate, respectively) were plotted versus the Log of the concentration in molar of the evaluated inhibitor compound. The pIC50 values were then fitted using a four-parametric fitting procedure using GraphPad Prism (version 6; GraphPad Software, Inc.). Respective Ki values were obtained by correction of the IC50 values for the respective KM value of the used substrate (see Table A for the obtained KM values of the used substrates) using the following formula: […]
as §1

T1 sequence (P03952 391-638): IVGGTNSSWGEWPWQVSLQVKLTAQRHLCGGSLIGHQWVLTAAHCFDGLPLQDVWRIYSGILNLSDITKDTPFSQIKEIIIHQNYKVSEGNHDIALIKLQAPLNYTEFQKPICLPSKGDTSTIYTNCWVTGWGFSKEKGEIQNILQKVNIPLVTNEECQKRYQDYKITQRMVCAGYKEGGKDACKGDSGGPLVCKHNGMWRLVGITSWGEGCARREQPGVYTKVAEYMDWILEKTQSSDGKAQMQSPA
T1 sequence (P03952 20-390 partner): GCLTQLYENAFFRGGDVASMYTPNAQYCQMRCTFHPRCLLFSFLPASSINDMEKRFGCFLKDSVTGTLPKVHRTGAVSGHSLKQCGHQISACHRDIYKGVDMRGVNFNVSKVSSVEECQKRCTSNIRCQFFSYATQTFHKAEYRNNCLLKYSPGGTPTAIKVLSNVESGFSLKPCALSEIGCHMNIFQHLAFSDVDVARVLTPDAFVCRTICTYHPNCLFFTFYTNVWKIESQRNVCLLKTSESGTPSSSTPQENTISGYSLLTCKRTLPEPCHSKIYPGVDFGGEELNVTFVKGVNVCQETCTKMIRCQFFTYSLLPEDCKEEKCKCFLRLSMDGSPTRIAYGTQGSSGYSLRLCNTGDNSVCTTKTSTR
PKK in kaolin activated human platelet poor plasma, sequence (P03952 391-638): as the sequence (P03952 391-638) above
PKK in kaolin activated human platelet poor plasma, sequence (P03952 20-390 partner): as the sequence (P03952 20-390 partner) above
human TK1, sequence (P06870 25-262): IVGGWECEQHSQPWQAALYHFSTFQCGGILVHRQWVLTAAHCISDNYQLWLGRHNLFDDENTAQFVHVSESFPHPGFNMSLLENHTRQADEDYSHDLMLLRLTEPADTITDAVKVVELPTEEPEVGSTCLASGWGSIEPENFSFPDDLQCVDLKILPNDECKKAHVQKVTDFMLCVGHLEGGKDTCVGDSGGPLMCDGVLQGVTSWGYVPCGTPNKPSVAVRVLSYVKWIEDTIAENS

Row | SMILES | IC50 (Human PKK [1]) [nM] | Ki (Human PKK [2]) [nM] | IC90 [3] [nM] | IC50 (human TK1) [nM]
1 | Cc1nc(N2CC3CC3C2)ccc1Cn1cc(C(=O)N[C@@H]2CCc3c2n[nH]c3C)nc1C1CC1 (stereo partly drawn) [Example 96, 1-[(6-{3-Azabicyclo[3.1.0]hexan-3-yl}-2-methyl-pyridin-3-yl)methyl]-2-cyclopropyl-N-[(6R)-3-methyl-2H,4H,5H,6H-cyclopenta[c]pyrazol-6-yl]-1H-imidazole-4-carboxamide] | 2 | 1 | 781 | > 10000
2 | Cc1nc(N2CC3(CCC3)C2)ccc1Cn1cc(C(=O)N[C@@H]2CCc3c2n[nH]c3C)cn1 [Example 54, 1-[(6-{2-Azaspiro[3.31]heptan-2-yl}-2-methylpyridin-3-yl)methyl]-N-[(6R)-3-methyl-2H,4H,5H,6H-cyclopenta[c]pyrazol-6-yl]-1H-pyrazole-4-] | 2 | 1 | 944 | > 10000
3 | Cc1nc(N2CC3CC3C2)ccc1Cn1cc(C(=O)N[C@@H]2CCc3c2n[nH]c3C)nc1C (stereo partly drawn) [Example 97, 1-[(6-(3-Azabicyclo[3.1.0]hexan-3-yl}-2-methyl-pyridin-3-yl)methyl]-2-methyl-N-[(6R)-3-methyl-2H,4H,5H,6H-cyclopenta[c]pyrazol-6-yl]-1H-imidazole-4-carboxamide] | 2 | 1 | 302 | > 10000
4 | Cc1nc(N2CC3CC3C2)ccc1Cc1csc(C(=O)N[C@@H]2CCc3c(C)n[nH]c32)c1 (stereo partly drawn) [Example 6, 4-[(6-{3-Azabicyclo[3.1.0]hexan-3-yl}-2-methylpyridin-3-yl)methyl]-N-[(6R)-3-methyl-1H,4H,5H,6H-cyclopenta[c]pyrazol-6-yl]thiophene-2-carboxamide] | 0.7 | 0.5 | 291 | > 10000
5 | Cc1nc(N2CC3CC3C2)ncc1Cn1cc(C(=O)N[C@@H]2CCc3c(C)n[nH]c32)nn1 (stereo partly drawn) [Example 87, 1-[(2-{3-Azabicyclo[3.1.0]hexan-3-yl}-4-methylpyrimidin-5-yl)methyl]-N-[(6R)-3-methyl-1H,4H,5H,6H-cyclopenta[c]pyrazol-6-yl]-1H-1,2,3-triazole-4-carboxamide] | 2 | 1 | 1170 | > 10000
6 | Cc1nc(N2C[C@@H]3[C@H](CO)[C@@H]3C2)ccc1Cn1cnc(C(=O)N[C@@H]2CCc3c2n[nH]c3C)c1 (stereo in doubt) [Example 99, 1-({6-[(1R,5S,6S)-6-(Hydroxymethyl)-3-aza-bicyclo[3.1.0]hexan-3-yl]-2-methylpyridin-3-yl}-methyl)-N-[(6R)-3-methyl-2H,4H,5H,6H-cyclo-penta[c]pyrazol-6-yl]-1H-imidazole-4-carboxamide] | 1 | 1 | 388 | > 10000
7 | Cc1nc(N2C[C@@H]3[C@H](C)[C@@H]3C2)ncc1Cn1cnc(C(=O)N[C@@H]2CCc3c2n[nH]c3C)c1 [Example 101, 1-({4-Methyl-2-[(1R,5S,6R)-6-methyl-3-azabicyclo[3.1.0]hexan-3-yl]pyrimidin-5-yl}methyl)-N-[(6R)-3-methyl-2H,4H,5H,6H-cyclopenta[c]-pyrazol-6-yl]-1H-imidazole-4-carboxamide] | 2 | 2 | 727 | > 10000
8 | Cc1[nH]nc2c1CC[C@H]2NC(=O)c1cn(Cc2ccc(N3CC4CC4C3)nc2)cn1 (stereo partly drawn) [Example 103, 1-[(6-{3-Azabicyclo[3.1.0]hexan-3-yl}pyridin-3-yl)-methyl]-N-[(6R)-3-methyl-2H,4H,5H,6H-cyclo-penta[c]pyrazol-6-yl]-1H-imidazole-4-carboxamide] | 2 | 3 | 416 | > 10000
9 | Cc1nc(N2CC3CC3C2)ccc1Cn1cc(C(=O)N[C@@H]2CCc3c2n[nH]c3C)c2cc(C(=O)O)ccc21 (stereo partly drawn) [Example 108, 1-[(6-{3-Azabicyclo[3.1.0]hexan-3-yl}-2-methylpyridin-3-yl)methyl]-3-{[(6R)-3-methyl-2H,4H,5H,6H-cyclopenta[c]pyrazol-6-yl]carbamoyl}-1H-indole-5-carboxylic acid] | 1 | 6 | 776 | > 10000

Second part, the compound after the results:

Row | IC50 (Human PKK [1]) [nM] | Ki (Human PKK [2]) [nM] | IC90 [3] [nM] | IC50 (human TK1) [nM] | SMILES
10 | 2 | 1 | 708 | > 10000 | Cc1nc(N2CCC(C)(C#N)C2)ccc1Cn1cc(C(=O)N[C@@H]2CCc3c2n[nH]c3C)cn1 (stereo partly drawn) [Example 71, 1-{[6-(3-Cyano-3-methylpyrrolidin-1-yl)-2-methylpyridin-3-yl]methyl}-N-[(6R)-3-methyl-2H,4H,5H,6H-cyclopenta[c]pyrazol-6-yl]-1H-pyrazole-4-carboxamide]
11 | 0.4 | 0.8 | 303 | > 10000 | Cc1nc(N2C[C@@H]3[C@H](C)[C@@H]3C2)ccc1Cn1cnc(C(=O)N[C@@H]2CCc3c2n[nH]c3C)c1 [Example 100, N-[(6R)-3-Methyl-2H,4H,5H,6H-cyclopenta[c]-pyrazol-6-yl]-1-({2-methyl-6-[(1R,5S,6R)-6-methyl-3-azabicyclo[3.1.0]hexan-3-yl]pyridin-3-yl}methyl)-1H-imidazole-4-carboxamide]
12 | 4 | 1 | 4670 | > 10000 | Cc1nc(N2CCC3(CCC3)C2)ccc1Cn1cc(C(=O)N[C@@H]2CCc3c2n[nH]c3C)cn1 [Example 36, 1-[(6-{6-Azaspiro[3.4]octan-6-yl}-2-methylpyridin-3-yl)methyl]-N-[(6R)-3-methyl-2H,4H,5H,6H-cyclopenta[c]pyrazol-6-yl]-1H-pyrazole-4-carboxamide]
13 | 5 | 4 | 1110 | > 10000 | Cc1nc(N2CC(C)(F)C2)ccc1Cn1cc(C(=O)N[C@@H]2CCc3c2n[nH]c3C)cn1 [Example 77, 1-{[6-(3-Fluoro-3-methylazetidin-1-yl)-2-methylpyridin-3-yl]methyl}-N-[(6R)-3-methyl-2H,4H,5H,6H-cyclopenta[c]pyrazol-6-yl]-1H-pyrazole-4-carboxamide]
14 | 4 | 1 | 5120 | > 10000 | Cc1nc(N2CCCC2)ccc1Cn1cc(C(=O)N[C@@H]2CCc3c2n[nH]c3C)cn1 [Example 52, N-[(6R)-3-Methyl-2H,4H,5H,6H-cyclopenta[c]pyrazol-6-yl]-1-{[2-methyl-6-(pyrrolidin-1-yl)pyridin-3-yl]methyl}-1H-pyrazole-4-carboxamide]
15 | 2 | 0.9 | 2010 | > 10000 | Cc1nc(N2CCC(C)(C)C2)ccc1Cn1cc(C(=O)N[C@@H]2CCc3c2n[nH]c3C)cn1 [Example 35, 1{[6-(3,3-Dimethylpyrrolidin-1-yl)-2-methylpyridin-3-yl]methyl}-N-[(6R)-3-methyl-2H,4H,5H,6H-cyclopenta[c]pyrazol-6-yl]-1H-pyrazole-4-carboxamide]
16 | 0.6 | 0.3 | 241 | > 10000 | Cc1nc(N2CC3C(C2)C3(F)F)ccc1Cn1cc(C(=O)N[C@@H]2CCc3c(C)n[nH]c32)cn1 (stereo partly drawn) [Example 5, 1-[(6-{6,6-Difluoro-3-azabicyclo[3.1.0]hexan-3-yl}-2-methylpyridin-3-yl)methyl]-N-[(6R)-3-methyl-1H,4H,5H,6H-cyclopenta[c]pyrazol-6-yl]-1H-pyrazole-4-carboxamide]
